Source: ChEMBL document CHEMBL5365438, “2-Substituted 1,5-benzothiazepine-based HDAC inhibitors exert anticancer activities on human solid and acute myeloid leukemia cell lines” (Bioorg Med Chem, 2023)
The source made the active and inactive calls. The calls are words filed in the database; no cut-off is given here.

Experiments:
U-937 [1] = assay: Cytotoxicity against human U-937 cells assessed as cell death at 1 to 5 uM incubated for 24 hrs by PI staining based FACS analysis relative to control; type: functional; conditions: dose 1-5 µM
HCT-116 [2] = assay: Induction of apoptosis in human HCT-116 cells assessed as increased p21 protein expression level at 1 to 5 uM incubated for 24 hrs by immunoblotting analysis; type: functional, cell-based; conditions: dose 1-5 µM
U-937 [3] = assay: Induction of cell cycle arrest in human U-937 assessed as reduced accumulation of cells in S phase at 1 uM incubated for 24 hrs by FACS analysis; type: functional, cell-based
[4] = target: T1, Histone deacetylase (Homo sapiens) (UniProt Q13547+O15379+Q9UBN7+Q92769+Q9UQL6+Q8WUI4+Q9BY41+Q96DB2+P56524+Q9UKV0+Q969S8); assay: Inhibition of HDAC in human HCT-116 cells assessed as upregulation of acetyl alpha-tubulin level at 1 to 5 uM incubated for 24 hrs by immunoblotting analysis; type: cell-based; conditions: dose 1-5 µM
HCT-116 [5] = assay: Cytotoxicity against human HCT-116 cells assessed as reduction in cell death at 1 uM incubated for 24 hrs by PI staining based FACS analysis; type: functional
U-937 [6] = assay: Induction of apoptosis in human U-937 cells assessed as increased p21 protein expression level at 1 to 5 uM incubated for 24 hrs by immunoblotting analysis; type: functional, cell-based; conditions: dose 1-5 µM
[7] = target: T1, Histone deacetylase (Homo sapiens); assay: Inhibition of HDAC in human U-937 cells assessed as upregulation of histone H3 acetylation at lysine 14 residue at 5 uM incubated for 24 hrs by immunoblotting analysis; type: cell-based
HCT-116 [8] = assay: Cytotoxicity against human HCT-116 cells assessed as cell death at 5 uM incubated for 24 hrs by PI staining based FACS analysis relative to control; type: functional
HCT-116 [9] = assay: Induction of cell cycle arrest in human HCT-116 assessed as accumulation of cells in G2/M phase at 1 to 5 uM incubated for 24 hrs by FACS analysis relative to SAHA; type: functional; conditions: dose 1-5 µM
U-937 [10] = assay: Induction of cell cycle arrest in human U-937 assessed as decrease accumulation of cells in G1 phase at 5 uM incubated for 24 hrs by FACS analysis; type: functional, cell-based
Histone deacetylase = type: subcellular, Homo sapiens, Nucleus; conditions: hela
Description: Inhibition of HDAC in human HeLa cell nuclear extract using Kac fluorogenic peptide as substrate containing residues 379-382 of p53 by fluorescence assay

[11] = target: T1, Histone deacetylase (Homo sapiens); assay: Inhibition of HDAC in human U-937 cells assessed as upregulation of acetyl alpha-tubulin level at 5 uM incubated for 24 hrs by immunoblotting analysis; type: cell-based
U-937 [12] = assay: Induction of cell cycle arrest in human U-937 assessed as increase accumulation of cells in G2/M phase at 1 to 5 uM incubated for 24 hrs by FACS analysis; type: functional, cell-based; conditions: dose 1-5 µM
[13] = target: T2, Protein deacetylase HDAC6 (Homo sapiens) (UniProt Q9UBN7); assay: Inhibition of HDAC6 (unknown origin) at 10 uM using fluorogenic peptide as substrate pre-incubated for 15 mins followed by substrate addition incubated for 30 mins by fluorescence assay; conditions: time 45.0 min
T2 sequence (whole entry): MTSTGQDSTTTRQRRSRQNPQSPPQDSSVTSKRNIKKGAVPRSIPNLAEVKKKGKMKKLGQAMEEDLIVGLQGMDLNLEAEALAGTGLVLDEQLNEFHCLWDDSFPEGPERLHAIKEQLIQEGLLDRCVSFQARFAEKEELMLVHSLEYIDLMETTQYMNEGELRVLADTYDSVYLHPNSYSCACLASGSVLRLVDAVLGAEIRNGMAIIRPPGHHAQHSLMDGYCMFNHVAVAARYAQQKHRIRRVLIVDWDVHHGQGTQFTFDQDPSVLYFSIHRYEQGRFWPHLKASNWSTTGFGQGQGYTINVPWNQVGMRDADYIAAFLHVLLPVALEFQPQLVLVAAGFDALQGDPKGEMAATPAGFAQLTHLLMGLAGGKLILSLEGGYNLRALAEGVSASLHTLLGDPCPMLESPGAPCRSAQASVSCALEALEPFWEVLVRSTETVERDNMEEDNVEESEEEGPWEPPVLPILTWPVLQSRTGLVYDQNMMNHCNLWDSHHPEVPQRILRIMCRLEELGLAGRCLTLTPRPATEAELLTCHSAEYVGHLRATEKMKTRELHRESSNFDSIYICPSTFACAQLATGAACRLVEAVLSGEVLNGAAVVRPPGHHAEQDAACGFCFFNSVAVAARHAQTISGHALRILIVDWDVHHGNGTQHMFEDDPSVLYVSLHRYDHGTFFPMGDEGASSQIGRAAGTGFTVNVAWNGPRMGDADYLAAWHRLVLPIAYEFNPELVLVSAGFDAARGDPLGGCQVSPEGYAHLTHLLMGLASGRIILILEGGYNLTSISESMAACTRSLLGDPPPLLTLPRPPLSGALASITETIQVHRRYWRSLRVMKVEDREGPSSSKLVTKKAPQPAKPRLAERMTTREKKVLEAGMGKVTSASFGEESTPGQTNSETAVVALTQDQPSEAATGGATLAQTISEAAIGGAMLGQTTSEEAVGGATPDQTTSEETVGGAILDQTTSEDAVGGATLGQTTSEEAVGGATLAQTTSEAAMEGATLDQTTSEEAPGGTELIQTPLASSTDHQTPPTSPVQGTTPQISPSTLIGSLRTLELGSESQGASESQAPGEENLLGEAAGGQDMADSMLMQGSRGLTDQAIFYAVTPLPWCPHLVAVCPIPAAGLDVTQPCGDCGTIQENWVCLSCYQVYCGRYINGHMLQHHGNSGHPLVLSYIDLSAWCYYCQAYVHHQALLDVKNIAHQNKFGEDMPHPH

[14] = target: T1, Histone deacetylase (Homo sapiens); assay: Inhibition of HDAC in human U-937 cells assessed as upregulation of histone H3 acetylation at lysine 14 residue at 1 uM incubated for 24 hrs by immunoblotting analysis; type: cell-based
Histone deacetylase 1 [15] = target: T3, Histone deacetylase 1 (Homo sapiens, UniProt Q13547); assay: Inhibition of HDAC1 (unknown origin) at 10 uM using fluorogenic peptide as substrate pre-incubated for 15 mins followed by substrate addition incubated for 30 mins by fluorescence assay relative to control; conditions: time 45.0 min
U-937 [16] = assay: Induction of cell cycle arrest in human U-937 assessed as decrease accumulation of cells in S phase at 1 to 5 uM incubated for 24 hrs by FACS analysis; type: functional, cell-based; conditions: dose 1-5 µM
HCT-116 [17] = assay: Induction of cell cycle arrest in human HCT-116 assessed as decrease accumulation of cells in S phase at 1 to 5 uM incubated for 24 hrs by FACS analysis; type: functional, cell-based; conditions: dose 1-5 µM
HCT-116 [18] = assay: Induction of cell cycle arrest in human HCT-116 assessed as decrease accumulation of cells in G1 phase at 1 to 5 uM incubated for 24 hrs by FACS analysis; type: functional, cell-based; conditions: dose 1-5 µM
U-937 [19] = assay: Induction of cell cycle arrest in human U-937 assessed as decrease accumulation of cells in G1 phase at 1 to 5 uM incubated for 24 hrs by FACS analysis; type: functional, cell-based; conditions: dose 1-5 µM
Histone deacetylase 1 [20] = target: T3, Histone deacetylase 1; assay: Inhibition of HDAC1 (unknown origin) using fluorogenic peptide as the substrate containing residues 379-382 of p53 pre-incubated for 15 mins followed by substrate addition incubated for 30 mins by multimode plate reader
[21] = target: T1, Histone deacetylase (Homo sapiens); assay: Inhibition of HDAC in human HCT-116 cells assessed as upregulation of histone H3 acetylation at lysine 14 residue at 1 uM incubated for 24 hrs by immunoblotting analysis; type: cell-based

T3 sequence (Q13547 whole entry): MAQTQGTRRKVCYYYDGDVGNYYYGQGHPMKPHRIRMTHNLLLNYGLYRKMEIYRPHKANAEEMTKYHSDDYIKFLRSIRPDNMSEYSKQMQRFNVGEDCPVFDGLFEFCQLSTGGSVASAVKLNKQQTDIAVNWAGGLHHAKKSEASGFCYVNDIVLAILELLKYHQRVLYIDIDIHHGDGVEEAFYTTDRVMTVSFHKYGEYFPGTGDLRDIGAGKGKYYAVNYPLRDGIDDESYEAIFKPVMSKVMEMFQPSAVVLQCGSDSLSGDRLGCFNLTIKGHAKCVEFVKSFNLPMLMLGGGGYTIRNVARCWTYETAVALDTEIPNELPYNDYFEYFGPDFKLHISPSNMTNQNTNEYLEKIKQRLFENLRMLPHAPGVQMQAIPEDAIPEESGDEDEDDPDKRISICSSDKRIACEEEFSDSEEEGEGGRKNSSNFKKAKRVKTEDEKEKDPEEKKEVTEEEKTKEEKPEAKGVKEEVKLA

SMILES	Activity (U-937 [1])	Activity (HCT-116 [2])	Activity (U-937 [3])	Activity [4]	Activity (HCT-116 [5])	Activity (U-937 [6])	Activity [7]	Activity (HCT-116 [8])	Activity (HCT-116 [9])	Activity (U-937 [10])	IC50 (Histone deacetylase)	Activity [11]	Activity (U-937 [12])	inhibition [13]	Activity [14]	inhibition (Histone deacetylase 1 [15])	Activity (U-937 [16])	Activity (HCT-116 [17])	Activity (HCT-116 [18])	Activity (U-937 [19])	further results
O=C(CCCCCN1C(=O)CC(c2c3ccccc3cc3ccccc23)Sc2ccccc21)NO (racemic)	Active	Active	Active	Active	Active	Active	Active	22%	Active	Active	246 nM	Active	Active	–	–	–	–	–	–	–	–
O=C(CCCCCCC(=O)Nc1ccc([C@H]2O[C@@H](CSc3nc(-c4ccccc4)c(-c4ccccc4)o3)C[C@@H](c3ccc(CO)cc3)O2)cc1)NO	–	–	–	–	–	–	–	–	–	–	–	–	–	94.3%	–	–	–	–	–	–	–
O=C(CCCCCN1C(=O)C[C@H](c2ccc(Cl)c(Cl)c2)Sc2ccccc21)NO	Active	Active	Active	Active	Active	Active	–	22%	Active	Active	274.4 nM	Active	Active	–	–	–	–	–	–	–	–
O=C(CCCCCN1C(=O)CC(c2cccc3ccccc23)Sc2ccccc21)NO (racemic)	Active	Active	Active	Active	Active	Active	Active	22%	Active	Active	259.3 nM	Active	Active	–	Active	–	–	–	–	–	–
O=C(CCCCCN1C(=O)CC(c2cccc3ccccc23)S(=O)(=O)c2ccccc21)NO (racemic)	~6%	Active	–	Active	–	Active	Active	–	Active	–	77.9 nM	Active	Active	99.3%	Active	80.9%	Active	Active	Active	Active	IC50 (Histone deacetylase 1 [20]): 378 nM; Activity [21]: Active
O=C(CCCCCN1C(=O)CC(c2ccccc2Cl)S(=O)(=O)c2ccccc21)NO (racemic)	~6%	Active	–	Active	–	Active	Active	–	Active	–	40.6 nM	Active	Active	99.4%	Active	92.6%	Active	Active	Active	Active	IC50 (Histone deacetylase 1 [20]): 270 nM; Activity [21]: Active
O=C(CCCCCN1C(=O)CC(c2ccccc2Cl)Sc2ccccc21)NO (racemic)	Active	Active	Active	Active	Active	Active	Active	22%	Active	Active	109.4 nM	Active	Active	–	–	–	–	–	–	–	–
Cc1ccc(C2CC(=O)N(CCCCCC(=O)NO)c3ccccc3S2(=O)=O)cc1 (racemic)	~6%	Active	–	Active	–	Active	Active	–	Active	–	42.2 nM	Active	Active	98.6%	Active	93.5%	Active	Active	Active	Active	IC50 (Histone deacetylase 1 [20]): 175 nM; Activity [21]: Active
COc1ccc(C2CC(=O)N(CCCCCC(=O)NO)c3ccccc3S2)cc1 (racemic)	Active	Active	Active	Active	Active	Active	Active	22%	~75%	Active	118.3 nM	Active	Active	–	–	–	–	–	–	–	–
Cc1ccc(C2CC(=O)N(CCCCCC(=O)NO)c3ccccc3S2)cc1 (racemic)	Active	Active	Active	Active	Active	Active	Active	22%	Active	Active	123.4 nM	Active	Active	–	–	–	–	–	–	–	–
COc1ccc(C2CC(=O)N(CCCCCC(=O)NO)c3ccccc3S2(=O)=O)cc1 (racemic)	~6%	Active	–	Active	–	Active	Active	–	Active	–	114.6 nM	Active	Active	95.8%	Active	94.2%	Active	Active	Active	Active	IC50 (Histone deacetylase 1 [20]): 248 nM; Activity [21]: Active
